Laboratory results taken from patent publication US12221494B2, “Short synthetic peptides and their uses for treating retinal degenerative diseases and/or tissue injuries” (MacKay Memorial Hospital, priority 2019, dated 2025).

How the values were obtained:
[1] = system: STZ-induced diabetic mice; test: Vascular abnormalities (FITC-BSA hemorrhaging areas) in the retina of STZ-induced diabetic mice; format: in vivo, mouse; conditions: 200 μM eye drop three times a day for 14 days, vehicle control 8.2±1.5
Procedure: Diabetic mice were generated by intraperitoneal injection of streptozotocin (STZ; 200 mg/kg body weight) at day 1 and day 3. STZ was freshly prepared in 0.1 M citrate buffer (pH 4.5). After injection, mice were supplied with 10% sucrose overnight to prevent sudden hypoglycaemic shock. After 1 week (day 7), mice with non-fasting blood glucose levels >500 mg/dl were defined as diabetic and used for the experiments. Balanced salt solution (BSS) was served as peptide vehicle (Alcon, Novartis). 6-mer analogues (dissolved in BSS to 200 μM) eye drop were topically administered to eyes three times a day. After 2 weeks (day 14), mice were intraperitoneal injection of 100 mg/kg of FITC-BSA for further 30 min to determine vascular lesions (hemorrhaging areas) in retina. Subsequently, the animals were euthanized by CO2 inhalation, and the eyes were enucleated and fixed with 4% PFA for overnight at 4° Cand flat-mounted onto glass slides to obtain optical sections. Vascular lesions in the retina was scored in all four retinal quadrants of flat mounts by an epifluorescence microscopy at 200×. Three microscopic fields were sampled in each quadrant in both the central and peripheral retina, and data were presented as the average number of lesions/retina.
Microscopic appearance of degenerate capillaries in the I/R-induced retina are similar to that of acellular capillaries found in diabetic retinopathy. […]

[2] = system: C57BL/6 mice, dry eye induced in controlled environment chamber (CEC); test: Dry eye animal model, corneal fluorescein staining; format: in vivo, mouse; conditions: mice 14 days in CEC, then 100 μM peptide eye drop three times a day for 4 days (Day 4); day 0 score 3±0
Procedure: Dry eyes were induced by placing mice in a controlled environment chamber (CEC) for 14 days in accordance with procedures previously described by Barabino et al (IVOS (2005) 46(8), 2766-2771). Mice placed in the CEC were exposed to a condition, in which relative humidity (RH) was maintained at <25%, temperature at 20-22° C., and airflow at about 15 L/min, for 12 hours per day. Control mice were kept in a normal environment (RH>50%, no air flow, temperature of 20-22° C.) for the same duration.
A common artificial tear formulation, 1% carboxymethylcelllulose (CMC) dissolved in balanced salt solution (BSS) was used as the peptide vehicle. Peptide (100 μM, about 0.7 μg peptide in 10 μl eye drop used for treating one eye) or 1% CMC vehicle was topically administered to eyes three times a day. To test whether the present synthetic peptide could exert any therapeutic action on dry eyes, mice were housed at CEC for 14 days without topical treatment, and then were treated with the present peptide for 4 days.
Animals were anesthetized by an intraperitoneal injection of a mixture of zoletil (6 mg/kg) and xylazine (3 mg/kg). Corneal epithelial injury was determined by staining with topical fluorescein (Fluor-I-Strip, Ayerst Laboratories, Philadelphia, PA). Corneal fluorescein staining was examined with a slit-lamp biomicroscope under cobalt blue light and photographed with a digital camera. Dye staining of the cornea was scored in a blinded manner as follows: score 0 for no punctuate staining; score 1 when less than one third of the cornea was stained; score 2 when two thirds or less was stained; and score 3 when more than two thirds was stained (Horwath-Winter J 2013).
Briefly, mice were housed at controlled environment chamber (CEC) for 14 days (set as Day 0) to induce corneal surface disruption. Corneal fluorescein staining was used to estimate the corneal surface injury and the animal with a staining score of 2 (after mice placed at CEC for 14 days) was subjected to peptide treatment. The 6-mer variant peptide formulation for the treatment of DED was described in Methods. […]

survivin mRNA = test: Real-time qPCR of survivin mRNA in C2C12 cells; format: cell-based, mouse; conditions: C2C12 cells in low serum media, 20 μM peptide, 6 h
Procedure: Total RNA was extracted from cells using TRIzol (Invitrogen). Synthesis of cDNA was performed with 1 μg of total RNA at 50° C. for 50 min using oligo(dT) primers and reverse transcriptase (Superscript III; Invitrogen). Briefly, quantification of cDNA was performed in the LightCycler (Roche, Mannheim, Germany) using the DNA Master SYBR Green I kit (Roche) with the following cycling conditions: initial denaturation at 95° C. for 10 min, followed by 40 cycles at 95° C. for 10 s, 60° C. for 10 s, and 72° C. for 10 s and a 5-min terminal incubation at 72° C. The data were calculated with AACt. The expression was then normalized against the expression of glyceraldehyde-3-phosphate dehydrogenase (GAPDH). The PCR primers were mouse Survivin sense, 5′-[…]-3′ (SEQ ID NO: 27), anti-sense, 5′-[…]-3′ (SEQ ID NO: 28) (accession number: NM_001012273.1; PCR product: 136 bp); mouse GAPDH sense, 5′-[…]-3′ (SEQ ID NO: 29), anti-sense, 5′-[…]-3′ (SEQ ID NO: 30) (NM_001289726.1; 149 bp). For analysis rabbit inflammatory gene expression, The PCR primers were rabbit TNF-αsense, 5′-[…]-3′ (SEQ ID NO: 31), anti-sense, 5′-[…]-3′ (SEQ ID NO: 32) (accession number: NM 001082263.1); rabbit IL-1βsense, 5′-[…]-3′(SEQ ID NO: 33), anti-sense, 5′-[…]-3′ (SEQ ID NO: 34) (NM 001082201.1); rabbit GAPDH sense, 5′-[…]-3′ (SEQ ID NO: 35), anti-sense, 5′-[…]-3′ (SEQ ID NO: 36) (accession number:NM 001082253.1). The cycle threshold (Ct) values of the PCR product and a GAPDH (Glyceraldehyde 3-phosphate dehydrogenase) control mRNA were used to calculate relative quantities of mRNA.
Similar to the approach in Example 1.2.1, the expression level of survivin mRNA in C2C12 cells was used as an indicator for the function of the 6-mer variants in Tables 3 to 5. Briefly, C2C12 cells in low serum media were treated with 20 μM the 6-mer variants for 6 h. […] The results also confirmed that alanine substation at the glutamic acid (E) residues would severely impair the 6-mer activity.

NH2-(D-Ser)-Leu-Gly-Ala-Glu-Gln-COOH (SLGAEQ; HELM PEPTIDE1{[dS].L.G.A.E.Q}$$$$V2.0; SMILES CC(C)C[C@H](NC(=O)[C@H](N)CO)C(=O)NCC(=O)N[C@@H](C)C(=O)N[C@@H](CCC(=O)O)C(=O)N[C@@H](CCC(N)=O)C(=O)O) [6-mer dS]
numbers of vascular lesions (hemorrhaging areas in a retina) [1]: 2.8±0.6 lesions/retina
corneal fluorescein staining score [2]: 1.4±0.2 score
survivin mRNA induction, in words (survivin mRNA): increased the level of survivin mRNA
